Laboratory results from publication PMC12164290, “Immune-modulatory effects of Spindlin-1 inhibitors” (Clinical and Experimental Immunology, 2025).
Read-outs that look alike come from different tables or passages of the source.

Legend:
[1] = tested on: CD4+ T cells; assay: CD4+ T cell activation with anti-CD3/anti-CD28 (proliferation, surface markers, cytokines, viability); type: cell-based
Protocol: CTV staining was performed according to the protocol of supplier.
For analysis of the surface markers, 1.5–2*10^5 cells of each sample were blocked with human FcR Blocking Reagent (15 min, 4 °C). Afterwards, samples were stained with up to 7 µl of a mixture of different surface marker antibodies (15 min, 4 °C) and 250 µl of 10 % FCS/PBS were added. After centrifugation (300 g, 5 min, 4 °C) samples were resuspended in 100 µl PBS and measured with MACSQuant® Analyzer 10 flow cytometer. […] For CD4^+ T cells, anti-CD69, anti-CD45RO, anti-CD134, anti-CD154, anti-CD3, anti-CD25 were employed. […] Zombie Aqua™ Fixable Viability Kit (1:500 dilution, BioLegend, San Diego, CA, USA) (for CD4^+ T cells, macrophages) or Annexin/PE staining (BD Biosciences, Heidelberg, Germany) (for B cells) was used to discriminate living and dead cells according to the manufacturers protocol. For T cell and B cell proliferation assays, freshly isolated T and B cells were stained with CTV and the decrease in CTV as a result of cell proliferation was detected by flow cytometry. CTV positive cells were gated in high proliferating cells (low CTV level), medium proliferating cells (medium CTV level), and nonproliferating cells (high CTV level). […] For M1 MdMs, the cell population was gated using FSC/SSC channel, for M2 MdMs, the CD163^med population was gated since IL4 downregulates CD163 [18] and for CD4^+ T cells, CD3^+CD25^+ cells were gated. Geometric mean of the fluorescent intensity was calculated using FlowJo software V10 (Treestar, Ashland, TN, USA). Fold induction of surface marker expression was calculated using the DMSO-treated cells as control.

[2] = tested on: monocytes; assay: viability assay (Orangu, formazan-based), monocytes; type: cell-based, human; details: 48 h, n = 3, read-out: Monocyte viability IC50
Protocol: (§1) 2 × 10^5 CD4^+ T cells, 1 × 10^5 B cells, 1 × 10^5 monocytes, 1 × 10^5 M1 MdMs, or 1 × 10^5 M2 MdMs were treated with A366, MS31, or vehicle for 48 h. The viability was determined with the Orangu^TM assay as described by the manufacturer.

[3] = tested on: CD4+ T cells; assay: viability assay (Orangu, formazan-based), CD4+ T cells; design: species or system human; details: 48 h, n = 3, read-out: T cell viability IC50
Protocol: as §1

[4] = tested on: B cells; assay: viability assay (Orangu, formazan-based), B cells; design: species or system human; details: 48 h, n = 3, read-out: B cell viability IC50
Protocol: as §1

[5] = tested on: M1 macrophages; assay: polarization of MdMs to M1 macrophages (surface markers, cytokines, viability); type: cell-based, human
Protocol: (§2) The generation of monocyte-derived macrophages (MdMs) was performed as previously described. Briefly, 0.5 × 10^6 CD14^+ cells/well were differentiated to macrophages in the presence of 10 ng/ml M-CSF (for M2 macrophages) or 10 ng/ml GM-CSF (for M1 macrophages) for 7 days. The macrophages were polarized in the presence of different concentrations of A366, MS31, or vehicle (DMSO) in 48-well plates. After pre-incubation with test substances or DMSO for 30 min, stimulants for differentiation were added: 20 ng/ml IFNγ for M1 macrophages and 10 ng/ml IL4 for M2 macrophages and incubated for 48h and 24h, respectively.
(§3) For analysis of the surface markers, 1.5–2*10^5 cells of each sample were blocked with human FcR Blocking Reagent (15 min, 4 °C). Afterwards, samples were stained with up to 7 µl of a mixture of different surface marker antibodies (15 min, 4 °C) and 250 µl of 10 % FCS/PBS were added. After centrifugation (300 g, 5 min, 4 °C) samples were resuspended in 100 µl PBS and measured with MACSQuant® Analyzer 10 flow cytometer. For M1-/M2-MdMs, anti-CD86, anti-CD14, anti-HLA-DR, anti-CD206, anti-CD80, anti-TREM2, and anti-CD163 were used. For CD4^+ T cells, anti-CD69, anti-CD45RO, anti-CD134, anti-CD154, anti-CD3, anti-CD25 were employed. For B cells, anti-CD27, anti-CD19, and anti-CD38 were applied. Zombie Aqua™ Fixable Viability Kit (1:500 dilution, BioLegend, San Diego, CA, USA) (for CD4^+ T cells, macrophages) or Annexin/PE staining (BD Biosciences, Heidelberg, Germany) (for B cells) was used to discriminate living and dead cells according to the manufacturers protocol. For T cell and B cell proliferation assays, freshly isolated T and B cells were stained with CTV and the decrease in CTV as a result of cell proliferation was detected by flow cytometry. CTV positive cells were gated in high proliferating cells (low CTV level), medium proliferating cells (medium CTV level), and nonproliferating cells (high CTV level). Plasmablasts were characterized as CD27^+CD38^+ cells, naïve B as CD19^+CD27^lowCD38^med, and memory B cells as CD19^+CD27^med CD38^low (Supplementary Fig. 1). For M1 MdMs, the cell population was gated using FSC/SSC channel, for M2 MdMs, the CD163^med population was gated since IL4 downregulates CD163 [18] and for CD4^+ T cells, CD3^+CD25^+ cells were gated. Geometric mean of the fluorescent intensity was calculated using FlowJo software V10 (Treestar, Ashland, TN, USA). Fold induction of surface marker expression was calculated using the DMSO-treated cells as control.
(§4) For determination of cytokine concentrations (IL10, IL17, IL8, IL6, IFNγ, CCL2) in the supernatant of humane immune cells, cytometric bead array (BD Biosciences, Heidelberg, Germany) was used. For the detection of IgG, IgA, PGE2, CCL18, and CCL17 an ELISA was performed. The cytometric bead arrays and the ELISAs were performed according to the manufacturers protocol.

[6] = tested on: M2 MdMs; assay: energy metabolism (Seahorse OCR/ECAR), M2 MdMs; type: cell-based, human; details: polarized 24 h in presence of compound
Protocol: (§5) The energy metabolism was determined as described previously. Briefly, for the analysis of the extracellular acidification rate (ECAR) and the oxygen consumption rate (OCR) for human M1 MdMs, M2 MdMs, and activated B-/ CD4^+ T cells, the Seahorse XFe96 FluxPak (Agilent, Waldbronn, Germany) was used as recommended by the supplier. MdMs were polarized to M1 or M2 MdMs, B- and CD4^+ T cells were activated in the presence of A366, MS31, or vehicle (DMSO) for 48 h (M1 MdMs), 24 h (M2 MdMs) or 5 days (T/B cells). Cells were washed with Seahorse XF RPMI medium pH 7.4 (Agilent, Waldbronn, Germany), and OCR and ECAR were measured for a period of 120 min using the Seahorse XFe96 Analyzer (Agilent, Waldbronn, Germany) and analyzed by Wave Software (Agilent, Waldbronn, Germany). For T/B cells, the values after 50 min of stimulation of samples were related to the unstimulated control sample. For macrophages, the values at 50 min in treated samples were related to the vehicle control.

[7] = tested on: M1 MdMs; assay: energy metabolism (Seahorse OCR/ECAR), M1 MdMs; type: cell-based, human; details: polarized 48 h in presence of compound
Protocol: as §5

[8] = tested on: M2 MdMs; assay: viability assay (Orangu, formazan-based), M2 MdM; type: cell-based, human; details: 48 h, n = 3
Protocol: as §1

[9] = tested on: M2 macrophages; assay: polarization of MdMs to M2 macrophages (surface markers, cytokines, viability); type: cell-based, human
Protocol: as §2, §3, §4

[10] = tested on: B cells; assay: B cell activation with IL-21, sCD40L, CpG, anti-IgM (proliferation, plasmablasts, IgG/IgA, viability); type: cell-based, human; details: for B cell proliferation / formation of plasmablasts / release of IgA / release of IgG: IL-21, sCD40L, CpG, anti-IgM, 5 days, A366 and MS31 concentration-dependent
Protocol: B cells were activated as described previously. Briefly, 1.25 × 10^5 B cells (stained with 0.25 µM CTV) per well were seeded in a 48 well plate and pretreated with A366, MS31, rapamycin, or vehicle (DMSO) for 30 min and then stimulated with 2.5 μg/ml CpG, 5 μg/ml unconjugated goat antihuman IgM F(ab′)2 fragments, 1 μg/ml sCD40L, and 50 ng/ml recombinant human IL-21 for 5 days.
as §3, §4

[11] = tested on: M1 MdMs; assay: viability assay (Orangu, formazan-based), M1 MdM; type: cell-based, human; details: 48 h, n = 3
Protocol: as §1

[12] = tested on: primary human immune cells; assay: viability of primary human immune cells, formazan-based Orangu assay (ranges over cell types); details: 48 h
Protocol: as §1

[13] = tested on: Spindlin-1-H3K4me3-interaction; design: method as in PMID 31260300, PMID 34492335; details: cited from earlier work
[14] = tested on: B cells; assay: energy metabolism (Seahorse OCR/ECAR), activated B cells; type: cell-based, human; details: 5 days
Protocol: as §5

[15] = M1 polarization, 48 h, flow cytometry
[16] = M1 polarization, 48 h, supernatant
[17] = M2 polarization, 24 h, supernatant

**Q.** Which “cytotoxic effects on CD4+ T cells” value ([1]; 0–10 µM, 5 days) does the source give for `COc1c(CN)cc(CN)cc1OCCCN1Cc2ccccc2C1` [MS31] here?
**A.** no cytotoxic effects

**Q.** And the CD134 expression ([1]; activated CD4+ T cells, 5 days)?
**A.** increased

**Q.** And the “activation of CD4+ T cells (CD25 positive, CD25 and CD69 positive cells, CD69)” value ([1]; anti-CD3/anti-CD28, 5 days)?
**A.** did not influence

**Q.** What about the “proliferation of CD4+ T cells” value ([1]; anti-CD3/anti-CD28, 5 days, CTV) of the same molecule?
**A.** did not affect

**Q.** What about the IC50 [2] of the same molecule?
**A.** 42 µM

**Q.** And the IC50 [3]?
**A.** 22 µM

**Q.** And the IC50 [4]?
**A.** 11 µM

**Q.** What about the “overall effect on M1 polarization” value [5] of the same molecule?
**A.** may shift M1 to an M2 phenotype

**Q.** And the “cytotoxicity during polarization of M1 macrophages” value ([5]; 0–50 µM, 48 h, zombie staining)?
**A.** did not induce cytotoxicity

**Q.** What about the “CD163 surface marker expression” value [5, 15] of the same molecule?
**A.** slightly increased

**Q.** What about the “TREM2 surface marker expression” value [5, 15] of the same molecule?
**A.** slightly increased

**Q.** What about the “release of IFNγ” value [5, 16] of the same molecule?
**A.** upregulated the release of IFNγ more pronouncedly

**Q.** What about the “release of IL8” value [5, 16] of the same molecule?
**A.** significantly inhibited

**Q.** And the “OCR in M2 MdMs” value [6]?
**A.** only slightly increased

**Q.** And the “energy metabolism (OCR, ECAR) of M1 MdMs” value [7]?
**A.** did not affect

**Q.** What about the IC50 [8] of the same molecule?
**A.** 89 µM

**Q.** And the “overall effect on M2 polarization” value [9]?
**A.** may weaken M2 polarization

**Q.** And the “cytotoxicity during polarization of macrophages to M2 MdMs” value ([9]; 0–50 µM, zombie staining)?
**A.** did not induce cytotoxicity

**Q.** And the “CD86 surface marker expression” value ([9]; M2 polarization, 24 h, flow cytometry)?
**A.** reduced

**Q.** What about the CCL2 release [9, 17] of the same molecule?
**A.** reduced

**Q.** What about the CCL18 release [9, 17] of the same molecule?
**A.** increased

**Q.** What about the IL10 release [9, 17] of the same molecule?
**A.** reduced

**Q.** And the PGE2 release [9, 17]?
**A.** reduced

**Q.** What about the “B cell activation (proliferation, plasmablast formation, release of immunoglobulins A and G)” value ([10]; 2.5 µM) of the same molecule?
**A.** clearly prevented

**Q.** What about the B cell proliferation [10] of the same molecule?
**A.** markedly reduced

**Q.** And the formation of plasmablasts [10]?
**A.** markedly reduced

**Q.** And the “release of IgA” value [10]?
**A.** markedly reduced

**Q.** What about the “release of IgG” value [10] of the same molecule?
**A.** markedly reduced

**Q.** What about the IC50 [11] of the same molecule?
**A.** 3120 µM

**Q.** And the IC50 ([12]; range for CD4+ T cells and B cells, read-out: viability IC50 values)?
**A.** 11 to 22 µM

**Q.** And the IC50 ([12]; range over all immune cell types tested, read-out: IC50, immune cell type-dependent cytotoxicity)?
**A.** 11 to 3120 µM

**Q.** What about the IC50 [13] of the same molecule?
**A.** 0.077 µM

**Q.** What does the source list for `CO[C@H]1C[C@@H]2CC[C@@H](C)[C@@](O)(O2)C(=O)C(=O)N2CCCC[C@H]2C(=O)O[C@H]([C@H](C)C[C@@H]2CC[C@@H](O)[C@H](OC)C2)CC(=O)[C@H](C)/C=C(\C)[C@@H](O)[C@@H](OC)C(=O)[C@H](C)C[C@H](C)/C=C/C=C/C=C/1C` [rapamycin]?
**A.** energy metabolism of activated B cells (OCR, ECAR) [14]: induced both glycolysis and oxidative phosphorylation; B cell proliferation [10]: inhibit; formation of plasmablasts [10]: inhibit; release of IgA [10]: inhibit; release of IgG [10]: inhibit
